# Results as given in patent US20220146526A1, “METHOD FOR EVALUATING SAMPLE, ANALYSIS METHOD, METHOD FOR DETECTING DEGRADED SAMPLE, MARKER FOR DETECTING DEGRADED BLOOD PLASMA SAMPLE, AND MARKER FOR DETECTING DEGRADED SERUM SAMPLE” (SHIMADZU CORPORATION, priority 2019, published 2022).
# Key:
# Format in all cases: physicochemical, human
# [1] = GC/MS of blood plasma sample: time from blood collection to cooling of blood (Table B); set-up: key to Rate of increase or decrease / Rate of increase or decrease (first value, increase): detection intensity relative to 1 at cooling time ≤1 min; conditions: for Increase or decrease: detection intensity, blood collection to cooling 5 minutes or more vs 1 minute or less; for Rate of increase or decrease (second value, decrease) / Rate of increase or decrease (first value, increase): different from individual to individual, relative to 1 at 1 minute or less, collection to cooling 5 minutes; for Rate of increase or decrease (second value, decrease): individuals with decrease; for Rate of increase or decrease (first value, increase): individuals with increase; for Rate of increase or decrease: detection intensity relative to 1 at 1 minute or less, blood collection to cooling 5 minutes
# Protocol: (§1) At room temperature, 5 mL of blood from a healthy subject was taken into a blood-collecting vessel containing EDTA, and the blood-collecting vessel was inverted for mixing, then cooled, and allowed to stand at 4° C. Here, in order to investigate how the detection intensity of molecules contained in the sample was affected in a case where the time to cooling was set to 5 minutes or more as compared to that in a case where the time to cooling was set to 1 minute or less, preparations were performed under both the former condition and the latter condition. After standing, the blood sample was subjected to centrifugation under a condition of 4° C., 3000 rpm, and 15 minutes. […] After centrifugation, the blood-collecting vessel was left to stand at room temperature for 30 minutes, and the blood plasma was isolated during this 30 minutes. The obtained blood plasma sample was frozen and stored. Here, in order to investigate how the detection intensity of molecules contained in the sample was affected in cases where freezing and thawing was performed 4 times, 6 times, and 10 times after freezing as compared to that in a case where freezing and thawing was performed 2 times after freezing, freezing and thawing was performed under the respective conditions of 2, 4, 6, and 10 times.
# (§2) Frozen blood plasma samples and serum samples were subjected to GC/MS or LC/MS. In GC/MS, the blood plasma samples and serum samples were subjected to methoxymation and trimethylsilylation and then introduced to GC-MS.
# (§3) GC/MS was conducted using GCMS·TQ8040 (Shimadzu Corporation) that was a GC·MS equipped with AOC·20i (Shimadzu Corporation) as an autosampler.
# (§4) Column: BPX5 (inner diameter of 0.25 mm, length of 30 m, and film thickness of 0.25 μm) (SGE)
# (§5) Column temperature: maintained at 60° C. for 2 minutes, then raised at 15° C./min, and maintained at 330° C. for 3 minutes.
# (§6) Inlet temperature: 250° C.
# (§7) Carrier gas control mode: constant linear velocity of 39.0 cm/sec
# (§8) Sample introduction method: split (split ratio of 30:1) Injection volume: 1 μL
# (§9) Ionization method: electron ionization
# (§10) Ionization current: 60 μA
# (§11) Interface temperature: 280° C.
# (§12) Ion source temperature: 200° C.
# (§13) Mode: multiple reaction monitoring (MRM)
# Table B presents compounds of which the detection intensity increased or decreased by 30% or more in a case where the time from blood collection to cooling of blood, when a blood plasma sample was analyzed by GC/MS, was set to 5 minutes or more as compared to that in a case where the time was set to 1 minute or less. The rate of increase or decrease in Table B is the value of detection intensity relative to 1 that is the detection intensity in a case where the time from blood collection to cooling is set to 1 minute or less.
# [2] = GC/MS of blood plasma sample: number of times of freezing and thawing (Table C); conditions: for Increase or decrease: detection intensity; for Rate of increase or decrease (second value, decrease) / Rate of increase or decrease (first value, increase): different from individual to individual, relative to 1 at 2 times; for Rate of increase or decrease (second value, decrease): individuals with decrease; for Rate of increase or decrease (first value, increase): individuals with increase; for Rate of increase or decrease: detection intensity relative to 1 at 2 times
# Protocol: as §1, §2, §3, §4, §5, §6, §7, §8, §9, §10, §11, §12, §13
# The rate of increase or decrease in Table C is the value of detection intensity relative to 1 that is the detection intensity in a case where the number of times of freezing and thawing is set to 2 times.
# [3] = GC/MS of blood plasma sample: time from blood collection to centrifugation (Table A); conditions: for Rate of increase or decrease: detection intensity relative to 1 at 15 minutes; for Rate of increase or decrease / Increase or decrease: blood collection to centrifugation; for Increase or decrease: detection intensity
# In short: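 Read-out is MRM detection intensity by electron-ionization GC/MS on a BPX5 column after methoxymation and trimethylsilylation, expressed relative to a 15-minute collection-to-centrifugation interval. Plasma was prepared from EDTA blood held at 4° C and spun at 4° C, 3000 rpm for 15 minutes, then frozen.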
# [4] = GC/MS of serum sample: time from blood collection to centrifugation (Table G); conditions: blood collection to centrifugation; for Rate of increase or decrease: detection intensity relative to 1 at 15 minutes; for Increase or decrease: detection intensity
# In short: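 Values express detection intensity as a ratio to the sample centrifuged 15 minutes after blood collection (taken as 1). Serum was derivatized by methoxymation and trimethylsilylation, then analysed by electron-ionization GC/MS using multiple reaction monitoring on a BPX5 column ramped from 60 to 330° C.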
# [5] = GC/MS of serum sample: time from centrifugation to isolation (Table H); set-up: key to Rate of increase or decrease / Rate of increase or decrease (first value, increase): detection intensity relative to 1 at 30 min centrifugation-to-isolation; conditions: for Rate of increase or decrease: detection intensity relative to 1 at 30 minutes; for Increase or decrease: detection intensity
# In short: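 Values are GC/MS (EI, MRM) detection intensities of methoxymated/trimethylsilylated serum, normalised to 1 for the 30-min sample. Serum was isolated 30 min, 1 h or 6 h after room-temperature centrifugation (3500 rpm, 5 min) of blood.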
# [6] = GC/MS of serum sample: number of times of freezing and thawing (Table I); set-up: key to Rate of increase or decrease / Rate of increase or decrease (first value, increase): detection intensity relative to 2 freeze-thaw cycles = 1
# In short: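 Detection intensities are ratios to the value after two freeze–thaw cycles, which is set as 1, compared against 4, 6 and 10 cycles. Analysis used methoxymation and trimethylsilylation derivatization, then GC/MS with EI ionization and multiple reaction monitoring on a BPX5 column. Serum came from blood held at room temperature and spun at 3500 rpm for 5 min.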
# [7] = LC/MS of serum sample: number of times of freezing and thawing (Table M); set-up: key to Rate of increase or decrease: detection intensity relative to 1 at 2 freeze-thaw cycles
# In short: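 Values are detection intensities relative to serum thawed twice, versus 4, 6 or 10 freeze-thaw cycles. Serum came from blood spun at room temperature, 3500 rpm for 5 minutes. Analysis: electrospray LC/MS in MRM mode, Discovery HS F5-3 column, 40° C, 0.1% formic acid in water and acetonitrile.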
# [8] = LC/MS of blood plasma sample: time from blood collection to centrifugation (Table D); conditions: blood collection to centrifugation
# In short: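 Detection intensities are expressed relative to samples centrifuged 15 min after collection (=1), measured by electrospray LC/MS in MRM mode (Discovery HS F5-3, 40 °C, formic acid water/acetonitrile gradient at 0.25 mL/min). EDTA blood from a healthy donor was held at 4 °C, centrifuged at 4 °C, 3000 rpm, 15 min, and plasma frozen.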
# [9] = freezing and thawing 4 times vs 2 times
# [10] = freezing and thawing 6 times vs 2 times
# [11] = detection intensity relative to 1 at 2 times, serum, GC/MS, freezing and thawing 4 times
# [12] = detection intensity, serum, GC/MS, freezing and thawing 4 times vs 2 times
smiles,measurement,setting,value
O=C(O)c1cccnc1C(=O)O [Quinolinic acid],Increase or decrease,[1],Different from individual
same,"Rate of increase or decrease (second value, decrease)",[1],0.41
same,"Rate of increase or decrease (first value, increase)",[1],1.67
same,Increase or decrease,[2]; [9],Different from individual
same,"Rate of increase or decrease (second value, decrease)",[2]; freezing and thawing 4 times,0.68
same,"Rate of increase or decrease (first value, increase)",[2]; freezing and thawing 4 times,1.70
same,Rate of increase or decrease,[3]; after 4 hours,2.24
same,Increase or decrease,[3]; after 4 hours vs 15 minutes,Increase
Oc1ccc(O)cc1 [Hydroquinone],Rate of increase or decrease,[1],0.66
same,Increase or decrease,[1],Decrease
same,Increase or decrease,[2]; [9],Different from individual
same,"Rate of increase or decrease (second value, decrease)",[2]; freezing and thawing 4 times,0.69
same,"Rate of increase or decrease (first value, increase)",[2]; freezing and thawing 4 times,3.54
same,Rate of increase or decrease,[3]; after 4 hours,17.48
same,Increase or decrease,[3]; after 4 hours vs 15 minutes,Increase
O=C[C@H](O)[C@H](O)[C@H](O)CO [Ribose],Increase or decrease,[1],Increase
same,Rate of increase or decrease,[4]; after 4 hours,0.41
same,Increase or decrease,[4]; after 4 hours vs 15 minutes,Decrease
same,Increase or decrease,[2]; [10],Different from individual
same,"Rate of increase or decrease (second value, decrease)",[2]; freezing and thawing 6 times,0.70
same,"Rate of increase or decrease (first value, increase)",[2]; freezing and thawing 6 times,1.39
same,Rate of increase or decrease,[5]; after 1 hour,1.76
same,Increase or decrease,[5]; after 1 hour vs 30 minutes,Increase
same,Rate of increase or decrease,[6]; [11],1.68
same,Increase or decrease,[6]; [12],Increase
CC(C)CC(O)C(=O)O (stereo not shown) [2-Hydroxyisocaproic acid],Rate of increase or decrease,[1],1.31
same,Increase or decrease,[1],Increase
same,Rate of increase or decrease,[2]; freezing and thawing 6 times,0.66
same,Increase or decrease,[2]; [10],Decrease
O=c1[nH]c(=O)c2[nH]c(=O)[nH]c2[nH]1 [Uric acid],Rate of increase or decrease,[1],0.49
same,Increase or decrease,[1],Decrease
same,Rate of increase or decrease,[4]; after 8 hours,0.69
same,Increase or decrease,[4]; after 8 hours vs 15 minutes,Decrease
same,Rate of increase or decrease,"[7]; 6 times of freezing and thawing, detection intensity relative to 1 at 2 times",0.70
same,Number of times when compound is affected,"[7]; serum sample, LC/MS, detection intensity changed by 30% or more vs 2 times of freezing and thawing",6 times
same,Increase or decrease,"[7]; serum sample, LC/MS, detection intensity vs 2 times of freezing and thawing",Decrease
same,Rate of increase or decrease,[3]; after 12 hours,1.89
same,Increase or decrease,[3]; after 12 hours vs 15 minutes,Increase
same,Rate of increase or decrease,"[6]; 10 times of freezing and thawing, relative to 1 at 2 times, different from individual to individual, first value (increase)",1.33
same,Rate of increase or decrease,"[6]; 10 times of freezing and thawing, relative to 1 at 2 times, different from individual to individual, second value (decrease)",0.66
same,Number of times when compound is affected,"[6]; serum sample, GC/MS, detection intensity changed by 30% or more vs 2 times of freezing and thawing",10 times
same,Increase or decrease,"[6]; serum sample, GC/MS, detection intensity vs 2 times of freezing and thawing",Different from individual
same,Rate of increase or decrease,"[8]; detection intensity relative to 1 at 15 minutes, after 12 hours",1.52
same,Increase or decrease,"[8]; detection intensity, after 12 hours vs 15 minutes",Increase
O=C(O)C(O)Cc1ccccc1 (stereo not shown) [3-Phenyllactic acid],Increase or decrease,[1],Different from individual
same,"Rate of increase or decrease (second value, decrease)",[1],0.60
same,"Rate of increase or decrease (first value, increase)",[1],1.47
same,Rate of increase or decrease,[2]; freezing and thawing 10 times,0.62
same,Increase or decrease,[2]; freezing and thawing 10 times vs 2 times,Decrease
same,Rate of increase or decrease,[6]; [11],0.68
same,Increase or decrease,[6]; [12],Decrease
CC(=O)NCCCC[C@H](N)C(=O)O [N6-acetyllysine],Rate of increase or decrease,[1],0.61
same,Increase or decrease,[1],Decrease
same,Rate of increase or decrease,[4]; after 4 hours,1.55
same,Increase or decrease,[4]; after 4 hours vs 15 minutes,Increase
same,Rate of increase or decrease,[2]; freezing and thawing 6 times,0.57
same,Increase or decrease,[2]; [10],Decrease
same,Increase or decrease,[5]; after 6 hours vs 30 minutes,Different from individual
same,"Rate of increase or decrease (second value, decrease)","[5]; different from individual to individual, individuals with decrease, relative to 1 at 30 minutes, after 6 hours",0.58
same,"Rate of increase or decrease (first value, increase)","[5]; different from individual to individual, individuals with increase, relative to 1 at 30 minutes, after 6 hours",1.71
same,Rate of increase or decrease,[6]; [11],0.67
same,Increase or decrease,[6]; [12],Decrease
O=C(O)C(=O)O [Oxalic acid],Rate of increase or decrease,[1],1.58
same,Increase or decrease,[1],Increase
same,Rate of increase or decrease,[4]; after 4 hours,1.31
same,Increase or decrease,[4]; after 4 hours vs 15 minutes,Increase
same,Rate of increase or decrease,[5]; after 6 hours,1.67
same,Increase or decrease,[5]; after 6 hours vs 30 minutes,Increase
same,Increase or decrease,[3]; after 4 hours vs 15 minutes,Different from individual
same,"Rate of increase or decrease (second value, decrease)","[3]; different from individual to individual, individuals with decrease, relative to 1 at 15 minutes, collection to centrifugation, after 4 hours",0.32
same,"Rate of increase or decrease (first value, increase)","[3]; different from individual to individual, individuals with increase, relative to 1 at 15 minutes, collection to centrifugation, after 4 hours",3.80
same,Rate of increase or decrease,[6]; [11],0.61
same,Increase or decrease,[6]; [12],Decrease
